Results from US20260265179A1, “PHOTOSWITCHABLE COMPOUNDS AND AFFINITY LIGANDS, AND THEIR USE FOR THE OPTICAL CONTROL OF AFFINITY MATRICES” (AFC Innovations GmbH, priority 2023, published 2026).

Legend:
[1] = Stability of photoswitch in presence of TCEP during derivatization reaction; assay type: physicochemical; conditions: 1 mM TCEP, pH 8.5, 35° C., 16 h
Procedure: Freshly degassed and reduced SpA #2 (650 μM, 1.3 μmol, 10 mg, 1 eq) in a total volume of 2 ml was diluted with the same degassed buffer (100 mM sodium borate, 150 mM NaCl, 1 mM TCEP, pH 8.5) to a final protein concentration of 50 μM. This solution was stirred under nitrogen atmosphere while 2.2 mg PS2 (2.6 μmol, 2 eq) dissolved in 0.26 ml DMF, which has been illuminated with red light (635 nm) for 5 min, was added in one portion. The reaction was illuminated with red light and stirred for 16 h at 35° C. […] The derivatization reaction results in a […] amount of intramolecular cross-linked species. Further purification steps by anion exchange chromatography and SEC were performed to remove small amounts of cross-linked species and higher oligomers.

[2] = Thermal cis to trans relaxation of PS4, HPLC; assay type: physicochemical; conditions: 25° C., kept in the dark after yellow light (593 nm) for 2 min
[3] = test system: immunoglobulin G (IgG) mixture (Cutaquig); experiment: Light-controlled affinity purification of IgG from polyclonal antibody mixture Cutaquig; assay type: binding; conditions: sample application and washing under red light, elution under blue light; immobilized on NHS-Agarose
Procedure: For the functional assessment of the light-switchable affinity matrices, these were encased within a transparent acrylic glass housing, featuring a thickness of 2 mm, to achieve a settled bed volume (SBV) of 250 μl. A LED array equipped with lenses capable of alternating between peak wavelengths of 635 nm (red) and 465 nm (blue) was positioned adjacent to the housing. This configuration ensured thorough and efficient illumination of the entire resin material contained within. The performance of the light-switchable affinity matrix was tested using the polyclonal antibody mixture Cutaquig® (Octapharma) as a substrate.
Initially, the column was equilibrated with 3 mL of running buffer (50 mM TrisHCl, pH 7.6, 150 mM NaCl) using an FPLC system (AKTA Pure 25, Cytiva Life Science). The affinity matrix was then loaded with sample to achieve a 60% breakthrough. Unbound proteins and impurities were removed by washing the column with 7.5 mL of the same running buffer. Both, the sample application and washing steps were performed under red visible light illumination at 635 nm to ensure binding conditions. Following this, the elution of bound immunoglobulin G (IgG) was initiated by switching the illumination to blue visible light at 465 nm, which induces the release of the bound IgG. The resin was regenerated by again illuminating with red visible light at 635 nm, preparing it for subsequent use. […]

| Molecule | binding and light-controlled elution of IgG (chromatogram) [3] | further results |
| --- | --- | --- |
| COc1cc(-c2ccc(NC(=O)CCl)c(C(=O)NCC(=O)O)c2)cc(OC)c1/N=N/c1c(OC)cc(-c2ccc(NC(=O)CCl)c(C(=O)NCC(=O)O)c2)cc1OC [PS2, 4′-(2-(4-(2-chloroacetamido)-3′,5′-dimethoxybiphenyl-3-ylcarboxyamido)acetic acid)-4′-(2-(4-(2-chloroacetamido)-3′,5′-dimethoxybiphenyl-3-ylcarboxyamido)acetic acid)diazene] |  | stability in the presence of TCEP [1]: stable |
| O=C(O)CNC(=O)c1cc(-c2cc(F)c(/N=N/c3c(F)cc(-c4ccc(NC(=O)CCl)c(C(=O)NCC(=O)O)c4)cc3F)c(F)c2)ccc1NC(=O)CCl [PS4, 4′-(2-(4-(2-chloroacetamido)-3′,5′-difluorobiphenyl-3-ylcarboxyamido)acetic acid)-4′-(2-(4-(2-chloroacetamido)-3′,5′-difluorobiphenyl-3-ylcarboxyamido)acetic acid)diazene] |  | t1/2 (cis→trans) [2]: ≥ 24 h |
| Ps2-SpG #1: Protein G variant SpG #1 (SEQ ID NO. 18) modified with photoswitch PS2 (conjugate, photoswitch PS2) MATKASKGGGGTTYRLILNGVTLSGETTTEACDAATAERVFRQYANDYGVDGEWTYDCATRTFTVTEGEDEDEDED | elution of specifically bound IgG molecules is initiated by blue light illumination |  |
| Ps2-Ppl #1: Protein L variant PpL #1 (SEQ ID NO. 19) modified with photoswitch PS2 (conjugate, photoswitch PS2) MATKASKGGGGASEEVTIRVNLIFADGSTQCAEFRGTFEEATAEAYAYADLLARENGEYTACLEDGGNTINIRFAGEDEDEDED | elution of specifically bound IgG molecules is initiated by blue light illumination |  |
